Format in all cases: biochemical
Experiment [1] addresses T1, Human mTOR (Homo sapiens, UniProt P42345).
T1 construct: FLAG
In words: mTOR kinase assay (DELFIA format, purified enzyme). To be noted: His6-S6K substrate, read-out: TOR Kinase IC50. Here is the method: mTOR Kinase Assay Methods
Human mTOR assays (See Toral-Barza, et al. Biochem Biophys. Res. Commun. 2005 Jun. 24; 332(1):304-10) with purified enzyme are performed in 96-well plates by DELFIA format as follows. Enzymes are first diluted in kinase assay buffer (10 mM HEPES (pH 7.4), 50 mM NaCl, 50 mM β-glycerophosphate, 10 mM MnCl2, 0.5 mM DTT, 0.25 mM microcystin LR, and […]). To each well, 12 μL of the diluted enzyme is mixed briefly with 0.5 μL test inhibitor or control vehicle dimethylsulfoxide (DMSO). The kinase reaction is initiated by adding 12.5 μL kinase assay buffer containing ATP and His6-S6K to give a final reaction volume of 25 μL containing 800 ng/mL FLAG-TOR, […] and […]. The reaction plate is incubated for 2 hours (linear at 1-6 hours) at room temperature with gentle shaking and then terminated by adding 25 μL Stop buffer (20 mM HEPES (pH 7.4), 20 mM EDTA, 20 mM EGTA). The DELFIA detection of the phosphorylated (Thr-389) His6-S6K is performed at room temperature using a monoclonal anti-P(T389)-p70S6K antibody (1A5, Cell Signaling) labeled with Europium-N1-ITC (Eu) (10.4 Eu per antibody, PerkinElmer). The DELFIA Assay buffer and Enhancement solution can be purchased from PerkinElmer. 45 μL of the terminated kinase reaction mixture is transferred to a MaxiSorp plate (Nunc) containing 55 μL PBS. The His6-S6K is allowed to attach for 2 hours after which the wells are aspirated and washed once with PBS. 100 μL of DELFIA Assay buffer with 40 ng/mL Eu-P(T389)-S6K antibody is added. The antibody binding is continued for 1 hour with gentle agitation. The wells are then aspirated and washed 4 times with PBS containing 0.05% Tween-20 (PBST). 100 μL of DELFIA Enhancement solution is added to each well and the plates are read in a PerkinElmer Victor model plate reader. Data obtained is used to calculate enzymatic activity and enzyme inhibition by potential inhibitors.

In experiment [2] the target is PI3 Kinase α (Homo sapiens, UniProt P42336). In words: Fluorescence polarization assay for PI3K. The protocol:
(§1) Fluorescence Polarization Assay for PI3K
(§2) This assay is used to determine the IC50 of compounds of the present invention as it identifies inhibitors of PI3 kinase by measuring inhibition.
(§3) Reaction Buffer: 20 mM HEPES, pH 7.5, 2 mM MgCl2, 0.05% CHAPS; and 0.01% BME (added fresh) Stop/Detection Buffer: 100 mM HEPES, pH 7.5, 4 mM EDTA, 0.05% CHAPS; ATP 20 mM in water; PIP2 (diC8, cat# P-4508) 1 mM in water (MW=856.5); GST-GRP 1.75 mg/mL or 1.4 mg/mL in 10% glycerol; Red detector (TAMRA) 2.5 μM; Plate: Nunc 384 well black polypropylene fluorescence plate.
(§4) The assay is run by placing 5 μL of diluted enzyme per well, then 5 μL of diluted compound (or 9.5 μL enzyme then 0.5 μL compound in DMSO) is added and mixed. Then, 10 μL substrate is added to start the reaction. The samples are incubated 30-60 minutes, then the reaction is stopped by adding 20 μL stop/detector mix. PI3K is diluted with reaction buffer (e.g., 5 μL or 7.5 μL PI3K into 620 μL reaction buffer), and 5 μL of diluted enzyme is used per well. 5 μL reaction buffer or drug diluted in buffer (e.g., 4 μL/100 so final DMSO is 1% in reaction) is added to each. Pipetting up and down mixes the samples. Alternatively, the enzyme can be diluted to 1215 μL. In this case 9.8 μL is added per well and 0.2 μL compound is added in DMSO. To prepare 1 mL of substrate solution, 955 μL reaction buffer, 40 μL PIP2, and 2.5 μL ATP are mixed. 10 μL of substrate is added to each well to start the reaction.
(§5) Stop/detector mix is prepared by mixing 4 μL Red detector and 1.6 μL or 2.0 μL GST-GRP with 1 mL Stop buffer, which results in 10 nM probe and 70 nM GST-GRP). 20 μL of the stop/detector mix is added to each well to stop the reaction. The plates are read after 30-90 minutes keeping the red probe solutions dark. For the zero time point, stop/detector mix is added to the enzyme just before adding substrate. For an extra control, stop/detector mix is added to buffer (no enzyme) and substrate or to just buffer (no substrate). […] The recommended reaction has 0.06 μL per 20 μL (0.015 μg/20 μL) or 0.01125 μg/15 μL or 0.75 μg/mL. Plates are read on machines with filters for Tamra. The units are mP with no enzyme controls reading app 190-220 mP units. Fully active enzyme reduces fluorescence polarization down to 70-100 mP after 30 minutes. An active compound raises the mP values halfway to control or to 120-150 mP units.

Experiment [3] has as its target PI3 Kinase γ (Homo sapiens, UniProt P48736). In words: Fluorescence polarization assay for PI3K. The protocol:
as §1, §2, §3, §4, §5
(In general: Fluorescence polarisation rises when a labelled molecule tumbles more slowly, as on binding a larger partner.)

These results are taken from patent US20090192176A1, “1H-PYRAZOLO[3,4-D]PYRIMIDINE, PURINE, 7H-PURIN-8(9H)-ONE, 3H-[1,2,3]TRIAZOLO[4,5-D]PYRIMIDINE, AND THIENO[3,2-D]PYRIMIDINE COMPOUNDS, THEIR USE AS mTOR KINASE AND PI3 KINASE INHIBITORS, AND THEIR SYNTHESES” (Wyeth, priority 2008, published 2009).

pIC50: −log10 of the molar value.

Chain of PI3 Kinase α (P42336 whole entry): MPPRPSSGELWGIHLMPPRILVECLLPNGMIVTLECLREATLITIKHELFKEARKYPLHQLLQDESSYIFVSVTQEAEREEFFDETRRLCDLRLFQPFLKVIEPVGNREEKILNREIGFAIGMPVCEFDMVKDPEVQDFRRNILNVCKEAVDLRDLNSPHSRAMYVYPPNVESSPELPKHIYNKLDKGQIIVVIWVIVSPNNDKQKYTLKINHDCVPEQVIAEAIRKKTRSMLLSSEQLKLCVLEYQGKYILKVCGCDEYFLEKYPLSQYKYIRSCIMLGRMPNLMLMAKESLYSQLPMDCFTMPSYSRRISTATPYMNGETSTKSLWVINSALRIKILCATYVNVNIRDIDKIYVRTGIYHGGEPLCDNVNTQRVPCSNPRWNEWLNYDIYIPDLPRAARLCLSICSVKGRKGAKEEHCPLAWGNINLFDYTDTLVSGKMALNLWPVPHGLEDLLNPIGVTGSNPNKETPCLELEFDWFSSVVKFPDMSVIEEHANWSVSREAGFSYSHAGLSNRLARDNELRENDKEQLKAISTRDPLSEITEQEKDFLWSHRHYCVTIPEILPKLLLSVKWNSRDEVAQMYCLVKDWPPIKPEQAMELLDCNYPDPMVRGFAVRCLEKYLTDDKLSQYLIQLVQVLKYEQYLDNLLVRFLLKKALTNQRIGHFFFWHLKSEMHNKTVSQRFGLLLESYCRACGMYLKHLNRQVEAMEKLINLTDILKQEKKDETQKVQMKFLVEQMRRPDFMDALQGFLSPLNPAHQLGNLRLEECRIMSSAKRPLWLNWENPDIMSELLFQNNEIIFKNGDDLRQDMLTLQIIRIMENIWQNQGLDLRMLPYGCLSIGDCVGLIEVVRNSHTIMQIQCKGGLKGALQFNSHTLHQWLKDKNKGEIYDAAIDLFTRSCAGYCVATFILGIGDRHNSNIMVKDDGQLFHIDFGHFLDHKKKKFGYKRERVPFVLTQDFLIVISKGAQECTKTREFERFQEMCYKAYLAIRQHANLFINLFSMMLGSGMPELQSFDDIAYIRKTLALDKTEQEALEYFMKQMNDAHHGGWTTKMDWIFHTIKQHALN
Chain of PI3 Kinase α (P27986 whole entry partner): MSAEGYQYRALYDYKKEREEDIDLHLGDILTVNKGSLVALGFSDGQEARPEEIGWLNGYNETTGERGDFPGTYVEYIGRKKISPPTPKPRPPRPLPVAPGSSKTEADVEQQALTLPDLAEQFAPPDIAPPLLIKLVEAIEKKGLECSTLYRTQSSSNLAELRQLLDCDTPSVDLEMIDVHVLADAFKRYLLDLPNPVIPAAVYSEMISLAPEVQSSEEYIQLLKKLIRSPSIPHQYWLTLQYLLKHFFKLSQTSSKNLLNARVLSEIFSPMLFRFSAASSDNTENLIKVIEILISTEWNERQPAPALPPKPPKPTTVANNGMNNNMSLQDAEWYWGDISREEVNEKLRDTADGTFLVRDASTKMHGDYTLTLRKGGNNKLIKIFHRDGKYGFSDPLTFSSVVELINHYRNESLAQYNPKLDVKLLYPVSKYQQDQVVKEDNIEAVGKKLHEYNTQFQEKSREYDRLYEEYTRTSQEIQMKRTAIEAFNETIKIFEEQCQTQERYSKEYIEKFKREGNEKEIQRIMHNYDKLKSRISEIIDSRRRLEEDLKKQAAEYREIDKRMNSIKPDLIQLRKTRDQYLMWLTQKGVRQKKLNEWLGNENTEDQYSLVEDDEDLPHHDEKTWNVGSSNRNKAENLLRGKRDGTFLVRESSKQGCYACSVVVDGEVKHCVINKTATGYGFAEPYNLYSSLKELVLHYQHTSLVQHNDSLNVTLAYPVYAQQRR
Chain of PI3 Kinase γ (P48736 whole entry): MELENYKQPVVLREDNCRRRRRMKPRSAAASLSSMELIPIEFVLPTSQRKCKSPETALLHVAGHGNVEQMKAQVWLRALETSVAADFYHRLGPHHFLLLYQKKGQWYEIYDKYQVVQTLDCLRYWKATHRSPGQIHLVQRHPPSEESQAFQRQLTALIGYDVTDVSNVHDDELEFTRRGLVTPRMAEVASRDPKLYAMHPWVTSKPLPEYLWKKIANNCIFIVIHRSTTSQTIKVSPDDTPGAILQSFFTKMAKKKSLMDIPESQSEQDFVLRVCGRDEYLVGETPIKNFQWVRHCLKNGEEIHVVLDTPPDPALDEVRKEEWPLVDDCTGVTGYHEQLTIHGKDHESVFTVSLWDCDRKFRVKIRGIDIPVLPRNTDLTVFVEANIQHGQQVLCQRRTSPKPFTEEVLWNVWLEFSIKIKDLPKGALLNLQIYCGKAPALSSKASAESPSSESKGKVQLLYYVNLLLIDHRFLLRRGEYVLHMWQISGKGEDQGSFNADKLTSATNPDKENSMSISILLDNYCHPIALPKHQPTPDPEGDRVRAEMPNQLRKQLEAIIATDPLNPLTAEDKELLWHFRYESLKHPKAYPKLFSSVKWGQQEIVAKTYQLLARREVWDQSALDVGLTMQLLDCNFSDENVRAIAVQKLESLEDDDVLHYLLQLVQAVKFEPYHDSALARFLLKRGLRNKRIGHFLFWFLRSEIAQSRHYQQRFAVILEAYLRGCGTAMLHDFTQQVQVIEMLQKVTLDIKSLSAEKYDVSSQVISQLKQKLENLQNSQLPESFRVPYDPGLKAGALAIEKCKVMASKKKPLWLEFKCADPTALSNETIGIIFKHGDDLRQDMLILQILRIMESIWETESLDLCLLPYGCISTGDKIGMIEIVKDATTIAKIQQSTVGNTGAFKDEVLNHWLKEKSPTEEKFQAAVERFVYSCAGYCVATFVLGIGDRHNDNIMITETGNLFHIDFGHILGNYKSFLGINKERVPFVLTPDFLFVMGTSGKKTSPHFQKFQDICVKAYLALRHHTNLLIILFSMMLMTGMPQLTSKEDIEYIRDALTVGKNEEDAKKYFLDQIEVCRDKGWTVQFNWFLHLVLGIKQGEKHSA

With `CN1CCC(n2cnc3c(C4=CCOCC4)nc(-c4cccc(O)c4)nc32)CC1` [Compound 16, 3-[6-(3,6-dihydro-2H-pyran-4-yl)-9-(1-methylpiperidin-4-yl)-9H-purin-2-yl]phenol], the pIC50 in experiment [1] is 5.64; in experiment [2], 5.79; in experiment [3] it was 5.49.

As for `COc1ncccc1CN1CCC(n2cnc3c(C4=CCOCC4)nc(-c4cncc(O)c4)nc32)CC1` [Compound 36, 5-[6-(3,6-dihydro-2H-pyran-4-yl)-9-{1-[(2-methoxypyridin-3-yl)methyl]piperidin-4-yl}-9H-purin-2-yl]pyridin-3-ol], the pIC50 was 5.55 in experiment [1], 6.30 in experiment [2] and 5.60 in experiment [3].

Turning to `OCc1cccc(-c2nc(C3=CCOCC3)c3ncn(CCN4CCCCC4)c3n2)c1` [Compound 45, {3-[6-(3,6-dihydro-2H-pyran-4-yl)-9-(2-piperidin-1-ylethyl)-9H-purin-2-yl]phenyl}methanol], the results for the pIC50 in experiment [1], in experiment [2] and in experiment [3] were less than 5.40, 5.87 and 5.05, respectively.

For `Oc1cccc(-c2nc(C3=CCOCC3)c3nn[nH]c3n2)c1` [Compound 48, 3-[7-(3,6-dihydro-2H-pyran-4-yl)-3H-[1,2,3]triazolo[4,5-d]pyrimidin-5-yl]phenol], the results for the pIC50 in experiment [1], in experiment [2] and in experiment [3] were 7.49, 7.03 and 6.59, respectively.

Regarding `OCc1cccc(-c2nc(C3=CCOCC3)c3nn[nH]c3n2)c1` [Compound 49, {3-[7-(3,6-dihydro-2H-pyran-4-yl)-3H-[1,2,3]triazolo[4,5-d]pyrimidin-5-yl]phenyl}methanol], the pIC50 is 6.47 in experiment [1], 6.41 in experiment [2] and 5.98 in experiment [3].

On to `Oc1cccc(-c2nc(C3=CCOCC3)c3ncn(C4CCNCC4)c3n2)c1` [Compound 40, 3-[6-(3,6-dihydro-2H-pyran-4-yl)-9-piperidin-4-yl-9H-purin-2-yl]phenol], for which the pIC50 in experiment [1] was 5.85; in experiment [2], 6.27; in experiment [3], 5.50.

`Oc1cccc(-c2nc(C3=CCOCC3)c3ncn(CCN4CCCCC4)c3n2)c1` [Compound 46, 3-[6-(3,6-dihydro-2H-pyran-4-yl)-9-(2-piperidin-1-ylethyl)-9H-purin-2-yl]phenol]: the pIC50 in experiment [1] is less than 5.40; in experiment [2], 5.87; in experiment [3], 4.82.

As to `OCc1cccc(-c2nc(C3=CCOCC3)c3ncn(C4CCN(Cc5ccccc5)CC4)c3n2)c1` [Compound 21, {3-[9-(1-benzylpiperidin-4-yl)-6-(3,6-dihydro-2H-pyran-4-yl)-9H-purin-2-yl]phenyl}methanol], the figures for the negative-log IC50 (pIC50) in experiment [1], in experiment [2] and in experiment [3] were 5.46, 6.02 and 5.36, respectively.

Regarding `Oc1cccc(-c2nc(C3=CCOCC3)c3nnn(C4CCN(Cc5ccccc5)CC4)c3n2)c1` [Compound 47, 3-[3-(1-benzylpiperidin-4-yl)-7-(3,6-dihydro-2H-pyran-4-yl)-3H-[1,2,3]triazolo[4,5-d]pyrimidin-5-yl]phenol], the pIC50 in experiment [1] was 6.64; in experiment [2], 6.00; in experiment [3], 5.82.

With `Oc1cccc(-c2nc(C3=CCOCC3)c3ncn(C4CCN(Cc5cnc[nH]5)CC4)c3n2)c1` [Compound 17, 3-{6-(3,6-dihydro-2H-pyran-4-yl)-9-[1-(1H-imidazol-5-ylmethyl)piperidin-4-yl]-9H-purin-2-yl}phenol], the pIC50 in experiment [1] is 5.92; in experiment [2], 5.97; in experiment [3], 5.59.

As for `Oc1cncc(-c2nc(C3=CCOCC3)c3ncn(C4CCN(Cc5cccnc5)CC4)c3n2)c1` [Compound 29, 5-{6-(3,6-dihydro-2H-pyran-4-yl)-9-[1-(pyridin-3-ylmethyl)piperidin-4-yl]-9H-purin-2-yl}pyridin-3-ol], the results for the pIC50 in experiment [1], in experiment [2] and in experiment [3] were 5.62, 6.28 and 5.60, respectively.

As to `Cc1ccc(CN2CCC(n3cnc4c(C5=CCOCC5)nc(-c5cccc(O)c5)nc43)CC2)cc1` [Compound 18, 3-{6-(3,6-dihydro-2H-pyran-4-yl)-9-[1-(4-methylbenzyl)piperidin-4-yl]-9H-purin-2-yl}phenol], the values for the pIC50 in experiment [1], in experiment [2] and in experiment [3] were 5.68, 4.92 and 4.92, respectively.

Take `COc1ccc(CN2CCC(n3cnc4c(C5=CCOCC5)nc(-c5cncc(O)c5)nc43)CC2)cn1` [Compound 32, 5-[6-(3,6-dihydro-2H-pyran-4-yl)-9-{1-[(6-methoxypyridin-3-yl)methyl]piperidin-4-yl}-9H-purin-2-yl]pyridin-3-ol]: the values for the negative logarithm of the IC50 (pIC50) in experiment [1], in experiment [2] and in experiment [3] were 5.77, 6.07 and 5.60, respectively.

Take `Oc1cncc(-c2nc(C3=CCOCC3)c3ncn(C4CCN(Cc5c[nH]c6ccc(F)cc56)CC4)c3n2)c1` [Compound 33, 5-[6-(3,6-dihydro-2H-pyran-4-yl)-9-{1-[(5-fluoro-1H-indol-3-yl)methyl]piperidin-4-yl}-9H-purin-2-yl]pyridin-3-ol]: the pIC50 is 4.92 in experiment [1], 6.58 in experiment [2] and 6.41 in experiment [3].

For `Oc1cccc(-c2nc(C3=CCOCC3)c3ncn(C4CCN(Cc5ccc[nH]5)CC4)c3n2)c1` [Compound 15, 3-{6-(3,6-dihydro-2H-pyran-4-yl)-9-[1-(1H-pyrrol-2-ylmethyl)piperidin-4-yl]-9H-purin-2-yl}phenol], the pIC50 in experiment [1] is 5.85; in experiment [2], 6.55; in experiment [3] it was 6.13.

On to `Oc1cccc(-c2nc(C3=CCOCC3)c3ncn(C4CCN(Cc5ccc(N6CCOCC6)nc5)CC4)c3n2)c1` [Compound 14, 3-[6-(3,6-dihydro-2H-pyran-4-yl)-9-{1-[(6-morpholin-4-ylpyridin-3-yl)methyl]piperidin-4-yl}-9H-purin-2-yl]phenol], for which the pIC50 in experiment [1] was 6.07; in experiment [2], 5.83; in experiment [3], less than 5.00.

Turning to `Oc1cccc(-c2nc(C3=CCOCC3)c3ncn(C4CCN(Cc5ccco5)CC4)c3n2)c1` [Compound 13, 3-{6-(3,6-dihydro-2H-pyran-4-yl)-9-[1-(2-furylmethyl)piperidin-4-yl]-9H-purin-2-yl}phenol], the pIC50 is 5.85 in experiment [1], 6.08 in experiment [2] and 6.07 in experiment [3].

In the case of `Oc1cccc(-c2nc(C3=CCOCC3)c3ncn(C4CCN(Cc5ccc(F)c(F)c5)CC4)c3n2)c1` [Compound 20, 3-{9-[1-(3,4-difluorobenzyl)piperidin-4-yl]-6-(3,6-dihydro-2H-pyran-4-yl)-9H-purin-2-yl}phenol], the values for the pIC50 in experiment [2] and in experiment [3] were 5.15 and less than 5.00, respectively.

One may read the pIC50 as the IC50 on a negative log10 scale, so that one unit is a factor of ten.
